Drawing on PubChem BioAssay (NCI), this text covers TGI for four compounds.

Among the test systems are HL-60(TB) leukemia; KM12 colon; MALME-3M melanoma; NCI-H522 lung; OVCAR-3 ovarian; OVCAR-8 ovarian; SF-268 CNS; SW-620 colon; TK-10 renal; UACC-62 melanoma.
Holding throughout (experiment): NCI tumour cell line growth inhibition, 48 h

Structures are written as SMILES.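 48-hour exposure; five concentrations; linearly interpolated endpoints. TGI is the concentration that stops growth completely.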 Where a SMILES comes first, the peptide text is derived from it. [ ]: non-standard residue; d: D form. The star is where a group is joined. Phe(4-NO2) = N[CH](Cc1ccc([N+](=O)[O-])cc1)C(=O)O; Boc = CC(C)(C)OC(=O)*; OBn = c1ccc(CO*)cc1 Where only a bound is given, the exact number is not on record here.

For `N=C(N)SCCON1C(=O)c2ccccc2C1=O`, the TGI in the test with HL-60(TB) leukemia, in the test on KM12 colon, with MALME-3M melanoma, with NCI-H522 lung, with OVCAR-3 ovarian and with OVCAR-8 ovarian was > 100 µM in each case. In addition, the TGI with SF-268 CNS, with SW-620 colon, with TK-10 renal and in the test with UACC-62 melanoma was > 100 µM in each case.
As for `COC(=O)CCC(NC(=O)OC(C)(C)C)C(=O)NC(Cc1ccc([N+](=O)[O-])cc1)C(=O)NCC(=O)OCc1ccccc1` (stereo not given) (Boc-Glu(OMe)-[Phe(4-NO2)]-Gly-OBn; configuration not given here), the TGI in the test with HL-60(TB) leukemia, in the test on KM12 colon, with MALME-3M melanoma, with NCI-H522 lung, in the test with OVCAR-3 ovarian and in the test with OVCAR-8 ovarian was > 100 µM each time. The TGI was > 100 µM in the test on SF-268 CNS, > 100 µM in the test with SW-620 colon, > 100 µM in the test on TK-10 renal and > 31.6 µM in the test with UACC-62 melanoma.
As for `COc1cc(OC)c2c(O)cc(CC(C)O)cc2c1` (stereo not given), the TGI in the test with HL-60(TB) leukemia, in the test on KM12 colon, in the test with MALME-3M melanoma, with NCI-H522 lung, in the test with OVCAR-3 ovarian and in the test on OVCAR-8 ovarian was > 100 µM in each case. For the same compound, the TGI with SF-268 CNS, with SW-620 colon, in the test on TK-10 renal and in the test on UACC-62 melanoma was > 100 µM in each case.
On to `COc1ccc(N(C(=O)Nc2ccc(Cl)c(Cl)c2)c2ccccc2)cc1`, for which the TGI in the test on HL-60(TB) leukemia, in the test on KM12 colon, in the test with MALME-3M melanoma, with NCI-H522 lung, in the test on OVCAR-3 ovarian and in the test on OVCAR-8 ovarian was > 10 µM in each case. The TGI in the test on SF-268 CNS, in the test on SW-620 colon, in the test with TK-10 renal and in the test with UACC-62 melanoma was > 10 µM each time.
